According to PubChem BioAssay AID1963831 (Molecular Pharmacology Branch, DTP, NCI, 2024):

System: 889142-216-R-J1-PDC complex spheroid viability
Test: Anticancer human tumor 889142-216-R-J1-PDC patient-derived bladder carcinoma cell line growth inhibition [POLQ]
Conditions: for IC50: curve of first compound; for viability, T/C: stronger effect = lower value
Outline: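 PDC + HUVEC + MSC complex spheroids; POLQ inhibitors ± partner drugs; top conc. at/near clinical Cmax, else 10 microM (SN-38 1 microM), half-log dilutions; 37 degrees C, 5% CO2.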

[1] = second compound 0.0316 µM, first compound 0.0316 µM
[2] = second compound 0.0316 µM, first compound 0.1 µM
[3] = second compound 0.0316 µM, first compound 0.316 µM
[4] = second compound 0.0316 µM, first compound 1 µM
[5] = second compound 0.0316 µM, first compound 3.16 µM
[6] = second compound 0.0316 µM, first compound 10 µM
[7] = second compound 0.1 µM, first compound 0.0316 µM
[8] = second compound 0.1 µM, first compound 0.1 µM
[9] = second compound 0.1 µM, first compound 0.316 µM
[10] = second compound 0.1 µM, first compound 1 µM
[11] = second compound 0.1 µM, first compound 3.16 µM
[12] = second compound 0.1 µM, first compound 10 µM
[13] = second compound 0.316 µM, first compound 0.0316 µM
[14] = second compound 0.316 µM, first compound 0.1 µM
[15] = second compound 0.316 µM, first compound 0.316 µM
[16] = second compound 0.316 µM, first compound 1 µM
[17] = second compound 0.316 µM, first compound 3.16 µM
[18] = second compound 0.316 µM, first compound 10 µM
[19] = second compound 1 µM, first compound 0.0316 µM
[20] = second compound 1 µM, first compound 0.1 µM
[21] = second compound 1 µM, first compound 0.316 µM
[22] = second compound 1 µM, first compound 1 µM
[23] = second compound 1 µM, first compound 3.16 µM
[24] = second compound 1 µM, first compound 10 µM
[25] = second compound 3.16 µM, first compound 0.0316 µM
[26] = second compound 3.16 µM, first compound 0.1 µM
[27] = second compound 3.16 µM, first compound 0.316 µM
[28] = second compound 3.16 µM, first compound 1 µM
[29] = second compound 3.16 µM, first compound 3.16 µM
[30] = second compound 3.16 µM, first compound 10 µM
[31] = second compound 10 µM, first compound 0.0316 µM
[32] = second compound 10 µM, first compound 0.1 µM
[33] = second compound 10 µM, first compound 0.316 µM
[34] = second compound 10 µM, first compound 1 µM
[35] = second compound 10 µM, first compound 3.16 µM
[36] = second compound 10 µM, first compound 10 µM
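Note: spheroids exposed to compounds for seven days.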
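Throughout, for viability, T/C: 100% = DMSO vehicle control viability.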

In the case of `CC1COCCN1c1cc(-c2ccnn2C)c2ccnc(-c3ccn[nH]3)c2n1` (stereo not drawn) + Cc1cccc(N(C)C(=O)C2C(O)CCN2c2nc(C)cc(C(F)(F)F)c2C#N)c1, the IC50 (second compound 0.0316 µM) is reported as 215 nM, the IC50 (second compound 0.1 µM) is reported as 144 nM and the IC50 (second compound 0.316 µM) is reported as 162 nM. The IC50 (second compound 1 µM) was 264 nM, the IC50 (second compound 3.16 µM) was 242 nM and the IC50 (second compound 10 µM) was 154 nM. The viability, T/C [1] was 84.3%, the viability, T/C [2] was 52.8% and the viability, T/C [3] was 50.3%. It also gave a viability, T/C [4] of 37.8%, a viability, T/C [5] of 31.6% and a viability, T/C [6] of 25.9%. The viability, T/C [7] was 67.9%, the viability, T/C [8] was 55% and the viability, T/C [9] was 40.4%. The viability, T/C [10] was 34.7%, the viability, T/C [11] was 32.2% and the viability, T/C [12] was 25.8%. The viability, T/C [13] was 79.9%, the viability, T/C [14] was 54% and the viability, T/C [15] was 43.4%. It also gave a viability, T/C [16] of 33.9%, a viability, T/C [17] of 29.4% and a viability, T/C [18] of 25.8%. For the same compound, the viability, T/C [19] was 74.3%, the viability, T/C [20] was 59.2% and the viability, T/C [21] was 45.9%. For the same compound, the viability, T/C [22] was 41.7%, the viability, T/C [23] was 32.3% and the viability, T/C [24] was 26.9%. The viability, T/C [25] was 76.3%, the viability, T/C [26] was 56.4% and the viability, T/C [27] was 42.5%. For the same compound, the viability, T/C [28] was 48.9%, the viability, T/C [29] was 32.2% and the viability, T/C [30] was 27.9%. The viability, T/C [31] was 57.4%, the viability, T/C [32] was 56.5% and the viability, T/C [33] was 40.8%. For the same compound, the viability, T/C [34] was 34.7%, the viability, T/C [35] was 30.6% and the viability, T/C [36] was 26.9%.

For `CCCS(=O)(=O)Nc1ccc(F)c(C(=O)c2c[nH]c3ncc(-c4ccc(Cl)cc4)cc23)c1F` + Cc1cccc(N(C)C(=O)C2C(O)CCN2c2nc(C)cc(C(F)(F)F)c2C#N)c1, the IC50 (second compound 0.0316 µM) was over 10000 nM, the IC50 (second compound 0.1 µM) was over 10000 nM and the IC50 (second compound 0.316 µM) was over 10000 nM. The IC50 (second compound 1 µM) was 9290 nM, the IC50 (second compound 3.16 µM) was 8820 nM and the IC50 (second compound 10 µM) was 6130 nM. It also gave a viability, T/C [1] of 100%, a viability, T/C [2] of 116% and a viability, T/C [3] of 98.7%. For the same compound, the viability, T/C [4] was 105%, the viability, T/C [5] was 83.5% and the viability, T/C [6] was 50.5%. The viability, T/C [7] was 121%, the viability, T/C [8] was 101% and the viability, T/C [9] was 91%. For the same compound, the viability, T/C [10] was 96.5%, the viability, T/C [11] was 81.3% and the viability, T/C [12] was 48.8%. It also gave a viability, T/C [13] of 110%, a viability, T/C [14] of 86.7% and a viability, T/C [15] of 93.3%. It also gave a viability, T/C [16] of 91.7%, a viability, T/C [17] of 72.1% and a viability, T/C [18] of 60.5%. For the same compound, the viability, T/C [19] was 94.9%, the viability, T/C [20] was 91.1% and the viability, T/C [21] was 92.7%. For the same compound, the viability, T/C [22] was 90.5%, the viability, T/C [23] was 66.8% and the viability, T/C [24] was 48.9%. It also gave a viability, T/C [25] of 101%, a viability, T/C [26] of 96% and a viability, T/C [27] of 81.1%. It also gave a viability, T/C [28] of 79.2%, a viability, T/C [29] of 75.2% and a viability, T/C [30] of 44.9%. The viability, T/C [31] was 65.1%, the viability, T/C [32] was 86.2% and the viability, T/C [33] was 90.1%. For the same compound, the viability, T/C [34] was 66.3%, the viability, T/C [35] was 67% and the viability, T/C [36] was 38.5%.

`COc1ccc([C@@H](O)c2cc(-c3ncnc4cc(N5CCOCC5)ccc34)c(F)cc2Cl)nn1` + Cc1cccc(N(C)C(=O)C2C(O)CCN2c2nc(C)cc(C(F)(F)F)c2C#N)c1 showed an IC50 (second compound 0.0316 µM) of 3760 nM, an IC50 (second compound 0.1 µM) of 2710 nM and an IC50 (second compound 0.316 µM) of 2260 nM. For the same compound, the IC50 (second compound 1 µM) was 2850 nM, the IC50 (second compound 3.16 µM) was 3890 nM and the IC50 (second compound 10 µM) was 1850 nM. The viability, T/C [1] was 123%, the viability, T/C [2] was 81.2% and the viability, T/C [3] was 102%. For the same compound, the viability, T/C [4] was 69.6%, the viability, T/C [5] was 47.6% and the viability, T/C [6] was 36.8%. The viability, T/C [7] was 99.5%, the viability, T/C [8] was 98.8% and the viability, T/C [9] was 97.7%. It also gave a viability, T/C [10] of 67.1%, a viability, T/C [11] of 51.1% and a viability, T/C [12] of 40.9%. For the same compound, the viability, T/C [13] was 106%, the viability, T/C [14] was 103% and the viability, T/C [15] was 90.3%. For the same compound, the viability, T/C [16] was 59.6%, the viability, T/C [17] was 49.7% and the viability, T/C [18] was 35.5%. It also gave a viability, T/C [19] of 103%, a viability, T/C [20] of 112% and a viability, T/C [21] of 90.3%. The viability, T/C [22] was 66.7%, the viability, T/C [23] was 52.5% and the viability, T/C [24] was 35.9%. It also gave a viability, T/C [25] of 94.8%, a viability, T/C [26] of 79.8% and a viability, T/C [27] of 64.4%. The viability, T/C [28] was 70%, the viability, T/C [29] was 58.6% and the viability, T/C [30] was 35.2%. It also gave a viability, T/C [31] of 91.2%, a viability, T/C [32] of 80.5% and a viability, T/C [33] of 63.6%. The viability, T/C [34] was 53.6%, the viability, T/C [35] was 53.6% and the viability, T/C [36] was 28.9%.

Work on `Cn1ncnc1[C@H]1c2n[nH]c(=O)c3cc(F)cc(c23)N[C@@H]1c1ccc(F)cc1` + Cc1cccc(N(C)C(=O)C2C(O)CCN2c2nc(C)cc(C(F)(F)F)c2C#N)c1 yielded an IC50 (second compound 0.0316 µM) of over 100 nM, an IC50 (second compound 0.1 µM) of over 100 nM and an IC50 (second compound 0.316 µM) of over 100 nM. It also gave an IC50 (second compound 1 µM) of over 100 nM, an IC50 (second compound 3.16 µM) of over 100 nM and an IC50 (second compound 10 µM) of over 100 nM. The viability, T/C (second compound 0.0316 µM, first compound 0.000316 µM) was 100%, the viability, T/C (second compound 0.0316 µM, first compound 0.001 µM) was 93.9% and the viability, T/C (second compound 0.0316 µM, first compound 0.00316 µM) was 132%. For the same compound, the viability, T/C (second compound 0.0316 µM, first compound 0.01 µM) was 74%, the viability, T/C [1] was 85.1% and the viability, T/C [2] was 67.8%. It also gave a viability, T/C (second compound 0.1 µM, first compound 0.000316 µM) of 128%, a viability, T/C (second compound 0.1 µM, first compound 0.001 µM) of 101% and a viability, T/C (second compound 0.1 µM, first compound 0.00316 µM) of 130%. For the same compound, the viability, T/C (second compound 0.1 µM, first compound 0.01 µM) was 104%, the viability, T/C [7] was 87.9% and the viability, T/C [8] was 71.3%. For the same compound, the viability, T/C (second compound 0.316 µM, first compound 0.000316 µM) was 109%, the viability, T/C (second compound 0.316 µM, first compound 0.001 µM) was 111% and the viability, T/C (second compound 0.316 µM, first compound 0.00316 µM) was 91.7%. For the same compound, the viability, T/C (second compound 0.316 µM, first compound 0.01 µM) was 93.1%, the viability, T/C [13] was 80.4% and the viability, T/C [14] was 65.5%. For the same compound, the viability, T/C (second compound 1 µM, first compound 0.000316 µM) was 97.5%, the viability, T/C (second compound 1 µM, first compound 0.001 µM) was 110% and the viability, T/C (second compound 1 µM, first compound 0.00316 µM) was 92%. The viability, T/C (second compound 1 µM, first compound 0.01 µM) was 92.9%, the viability, T/C [19] was 81.9% and the viability, T/C [20] was 72.9%. The viability, T/C (second compound 3.16 µM, first compound 0.000316 µM) was 109%, the viability, T/C (second compound 3.16 µM, first compound 0.001 µM) was 105% and the viability, T/C (second compound 3.16 µM, first compound 0.00316 µM) was 82.7%. The viability, T/C (second compound 3.16 µM, first compound 0.01 µM) was 73.6%, the viability, T/C [25] was 75.5% and the viability, T/C [26] was 73.4%. The viability, T/C (second compound 10 µM, first compound 0.000316 µM) was 83.8%, the viability, T/C (second compound 10 µM, first compound 0.001 µM) was 71.6% and the viability, T/C (second compound 10 µM, first compound 0.00316 µM) was 69.1%. For the same compound, the viability, T/C (second compound 10 µM, first compound 0.01 µM) was 77.1%, the viability, T/C [31] was 81.5% and the viability, T/C [32] was 62.5%.
